pIC50: −log10 of the molar value. Counter-ions that a name gives are not always drawn.
Columns and labels:
wildtype CFTR [1] = target: T1, wildtype CFTR (Homo sapiens, UniProt P13569); assay: Whole-cell patch-clamp on FRT cells stably expressing wildtype CFTR; details: after stepping membrane potential to +80 mV; MalH-ConA 250 nM, GlyH-101 5 μM
[2] = Water solubility (statement); assay type: physicochemical
CFTR = target: T2, CFTR (Homo sapiens, UniProt P13569); assay: Reversibility of CFTR chloride current inhibition after washout; assay type: cell-based; details: after 95-100% inhibition; MalH-ConA over six hours
T2 construct: expressed in transfected cells; host or cells: Fischer rat thyroid (FRT) cells
Experimental: Chloride current increased slowly with incubation time, with 50% ‘reversal’ at approximately 8 h.

wildtype CFTR [3] = target: T1, wildtype CFTR; assay: Apical membrane chloride current (short-circuit current) in FRT epithelial cells expressing human wildtype CFTR

T1 sequence (P13569 whole entry): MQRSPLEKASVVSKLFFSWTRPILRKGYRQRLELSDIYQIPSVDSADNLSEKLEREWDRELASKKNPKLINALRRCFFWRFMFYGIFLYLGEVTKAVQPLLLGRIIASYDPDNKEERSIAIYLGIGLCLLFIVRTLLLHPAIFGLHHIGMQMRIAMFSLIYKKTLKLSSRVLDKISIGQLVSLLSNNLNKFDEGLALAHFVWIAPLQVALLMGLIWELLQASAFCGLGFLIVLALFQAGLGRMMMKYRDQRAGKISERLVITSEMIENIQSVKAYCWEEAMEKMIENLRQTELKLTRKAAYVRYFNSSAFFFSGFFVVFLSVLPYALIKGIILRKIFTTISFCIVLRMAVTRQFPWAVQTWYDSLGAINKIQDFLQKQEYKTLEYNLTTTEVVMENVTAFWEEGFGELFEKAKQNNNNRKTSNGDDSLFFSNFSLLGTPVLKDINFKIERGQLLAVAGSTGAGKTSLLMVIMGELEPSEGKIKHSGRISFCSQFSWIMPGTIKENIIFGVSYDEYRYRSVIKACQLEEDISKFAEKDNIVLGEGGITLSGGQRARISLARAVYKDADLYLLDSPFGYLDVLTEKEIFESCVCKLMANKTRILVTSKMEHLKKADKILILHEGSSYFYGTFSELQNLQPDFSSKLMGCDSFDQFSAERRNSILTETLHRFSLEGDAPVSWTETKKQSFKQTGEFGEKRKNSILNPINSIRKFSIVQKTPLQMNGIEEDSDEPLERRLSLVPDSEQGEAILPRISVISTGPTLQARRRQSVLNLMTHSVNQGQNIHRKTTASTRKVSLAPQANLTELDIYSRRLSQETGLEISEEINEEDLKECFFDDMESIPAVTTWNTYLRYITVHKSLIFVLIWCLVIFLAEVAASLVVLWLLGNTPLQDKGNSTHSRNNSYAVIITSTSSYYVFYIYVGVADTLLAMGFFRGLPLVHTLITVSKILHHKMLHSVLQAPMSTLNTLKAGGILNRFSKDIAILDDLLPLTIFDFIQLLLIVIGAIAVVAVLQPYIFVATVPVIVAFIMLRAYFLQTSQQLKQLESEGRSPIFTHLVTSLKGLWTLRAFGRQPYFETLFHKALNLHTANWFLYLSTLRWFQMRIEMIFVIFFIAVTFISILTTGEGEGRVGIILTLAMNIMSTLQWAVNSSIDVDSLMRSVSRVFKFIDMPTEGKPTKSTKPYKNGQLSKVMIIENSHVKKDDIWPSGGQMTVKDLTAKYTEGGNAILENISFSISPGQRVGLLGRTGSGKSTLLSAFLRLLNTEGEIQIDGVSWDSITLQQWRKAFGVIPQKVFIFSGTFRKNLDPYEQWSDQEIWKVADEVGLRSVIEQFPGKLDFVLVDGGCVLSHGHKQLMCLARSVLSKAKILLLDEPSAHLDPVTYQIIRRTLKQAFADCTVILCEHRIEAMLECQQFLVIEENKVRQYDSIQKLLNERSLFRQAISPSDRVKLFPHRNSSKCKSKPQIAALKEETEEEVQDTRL
T2 sequence (P13569 whole entry): as above

| Structure (SMILES) | time constant of current decay (single exponential) (wildtype CFTR [1]) [ms] | water solubility [2] | reversal of CFTR inhibition after washout and forskolin re-addition (CFTR) | pIC50 (wildtype CFTR [3]) | effect of mannose on CFTR inhibitory potency (wildtype CFTR [3]; 200 mM mannose) | effect of heat denaturation on CFTR inhibition activity (wildtype CFTR [3]; 100° C. for 5 min) | effect of EDTA on CFTR inhibition potency (wildtype CFTR [3]; EDTA in buffer (chelation of Ca2+ and Mg2+)) | effect of excess unconjugated ConA on CFTR inhibition potency (wildtype CFTR [3]; excess ConA (5 μM) added before compound) | effect of acid incubation on capability to inhibit CFTR (wildtype CFTR [3]; incubation at either pH 1.5 or pH 5.2) | CFTR inhibition after pronase treatment (wildtype CFTR [3]; pronase 8 hours, pH 8, 37° C.) |
| --- | --- | --- | --- | --- | --- | --- | --- | --- | --- | --- |
| O=C(CNc1ccc2ccccc2c1)NN=Cc1cc(Br)c(O)c(Br)c1O [GlyH-101, N^2-naphthalenyl-[3,5-[dibromo-2,4-dihydroxyphenyl)methylene]glycine hydrazide] | 8 to 10 |  |  |  |  |  |  |  |  |  |
| O=C(NN=Cc1cc(Br)c(O)c(Br)c1)C(Nc1ccc2ccccc2c1)C(=O)NNC(=S)Nc1ccc(C=Cc2ccc(N=C=S)cc2S(=O)(=O)O)c(S(=O)(=O)O)c1 (stereo not shown) [MalH-DIDS, 2-naphthalenylamino-[(3,5-dibromo-4-dihydroxyphenyl)methylene]hydrazide [[[4-[2-(4-isothiocyanato-2-sulfophenypethenyl]-2-sulfophenyl]amino]thioxomethyl]hydrazide-propanedioic acid, disodium salt] |  | highly water soluble | Near-complete and rapid reversal | 6.00 | did not affect | did not affect | did not affect | did not affect | did not affect | not affected |

Source: patent US8552067B2, “Macromolecular conjugates of cystic fibrosis transmembrane conductance regulator protein inhibitors and uses therefor” (The Regents of the University of California, priority 2006, dated 2013)
